The text below walks through data of patent publication US9402875B2, “Amidated dopamine neuron stimulating peptide restoration of mitochondrial activity” (University of Kentucky Research Foundation, priority 2006, dated 2016).

“Also recorded” adds a separate entry of the source. Ends that are not written are not given here.

Series [1] is described as follows: Distribution, uptake and half-life of DNSP-11 in the brain (immunostaining). Type of series: in vivo, rat. The following applies: male, F344, rat, brain, 30 ug; 30 μg intracerebral injection. Here is the method:
(§1) Additional studies were carried out to determine if DNSP-11 is actively taken up into dopamine-containing neurons in vivo. A single administration of 30 μg of DNSP-11 was delivered into the rat substantia nigra. Animals were euthanized at 0.5, 1.5, 4, 24 and 48 hrs after injection to visualize distribution of DNSP-11 using antibodies raised against DNSP-11 and the ubiquitinated form of DNSP-11. DNSP-11 antibodies labelled the cytosol and neurites of neurons in the area of the substantia nigra within 30 minutes after injection. DNSP-11 was taken up by neurons in both the substantia nigra, pars reticulata (SNr) and substantia nigra, pars compacta (SNc). […] Higher power micrographs from the SNc.
(§2) To assess the distribution, uptake and degradation of DNSP-11 in the brain, young adult male F344 rats, as a test organism, received injections of 30 μg DNSP-11 in the substantia nigra, hippocampus or cortex. They were euthanized by anesthesia overdose at various time points from 30 minutes to 48 hrs later and perfused through the heart with saline followed by paraformaldehyde.
(§3) Our standard published procedures for immuncytochemical staining were used (e.g. Gash D M et al., J Comp Neurol. 1995 December 18;363(3):345-58., Grondin et al., 2002; Ai et al., 2003). A polyclonal antibody was generated against DNSP-11 in rabbits (Alpha Diagnostic International, San Antonio, Tex.). Endogenous peroxidases were inactivated by incubation with 0.2% hydrogen peroxide (H2O2) for 10 minutes and background blocked with 4% normal serum, 1% bovine serum albumin (BSA) for 1 hour. Free floating sections were incubated in primary antisera. Sections were then exposed to the appropriate biotinylated IgG (Vecto Labs, Burlingame, Calif.) for 1 hour and then incubated in avidin-biotin-peroxidase complex using Elite ABC Vectastain Kits (Vector Labs) for 1 hour. Some sections were double-labeled using procedures following our published procedures for immunocytochemical staining to identify cells with two markers (e.g. Ai et al., 2003).
(§4) Controls for immunostaining included the omission of primary antibodies and replacement of primary antibodies with normal serum of the same species.

Another series has as its system rat brain neurons. Described as above. Type of series: in vivo. The method, then: as §1, §2, §3, §4
The subject of series [2] is mitochondria of substantia nigra and striatum. Description: Mitochondrial State III respiration 28 days after bilateral intranigral DNSP-11. Type of series: in vivo, rat. To be noted: 28 days post bilateral intranigral 30 μg. Here is the method:
Six five-month-old male F344 rats received bilateral intranigral injections of 30 μg DNSP-11. Six age and sex-matched controls received injections of the same volume of vehicle (citrate buffer). Twenty-eight days after test material administration, the animals were euthanized by CO2 anesthesia and the brain samples rapidly dissected. The striatum and substantia nigra were isolated quickly and carefully using a rat brain matrix for F344 rats.
Mitochondrial respiration was assessed using a miniature Clark-type electrode, in a sealed, thermostatic and continuously stirred chamber. Mitochondria were added to the chamber to yield a final protein concentration of 1 mg/ml. The substrate concentrations were 5.0 mM/2.5 mM for glutamate/malate and pyruvate/malate or 10 mM for succinate+[…] rotenone or α-glycerophosphate. State 3 respiration was initiated by the addition of 150 ηmols ADP. The respiratory control ratio was calculated as respiration in the presence of ADP (state 3)/respiration in absence of ADP (state 4). ADP/0 ratios were determined by dividing the amount of ADP phosphorylated during State III respiration by the amount of oxygen consumed. NAD-linked substrates, e.g. glutamate and pyruvate, utilize complexes I, III, IV in their oxidation, succinate utilizes complexes II, III, IV and α-glycerophosphate ultilizes III, IV. […]

For another series, the system named is MN9D dopaminergic cells. Description: Caspase-3 activity assay, protection against 6-OHDA toxicity. To be noted: 1 ng/mL for 1 hour before 100 μM 6-OHDA for 15 min; at 3 h. Type of series: cell-based. The method, then: MN9D Cell Cultures: The MN9D cell line has been described by Choi (1991) Brain Res. 552:67-76 and was a gift from Michael Zigmond. Cells were cultured in DMEM supplemented with 10% Fetal Bovine Serum (FBS, Hyclone), 50 U/mL penicillin and streptomycin. For experiments, the cells were plated on 24-well poly-D-lysine in DMEM with 1% (v/v) penicillin-streptomycin. The cells were grown at 37° C. in 5% CO2.
Caspase-3 Activity Assay in MN9D Cells: MN9D cells were plated to 100,000 cells/well. Cell cultures were exposed to DNSP-11 (1 ng/mL) or buffer for 1 hour prior to 15 min 100 μM 6-OHDA exposure. Caspase-3 activity was monitored after 3 hours by fluorescence (excitation/emission 496/520 nm) using the Enz Chek Caspase-3 kit. Protein levels of lysed cells were measured by BCA assay (BioRad) and normalized for every experiment. Data expressed as % control and repeated a minimum of 3 times.
To evaluate DNSP-11's neuroprotective properties, DNSP-11 was compared to GDNF in its protection against 6-OHDA-induced toxicity in the dopaminergic cell line, MN9D. MN9D dopaminergic cells were incubated for 1 hour with either citrate buffer (control), 1 ng/mL of DNSP-11 or GDNF prior to 100 μM 6-OHDA exposure for 15 min. Data are +SD, one-way ANOVA with Tukey's post hoc analysis, *p<0.05, **p<0.01, ***p<0.001 vs. control; #p<0.05, ##p<0.01, ###p<0.001 vs. 6-OHDA.

Setting [3] is: 30 μg bolus into mid-substantia nigra.

The substance “PPEAPAEDRSL-NH2 [DNSP-11, PPEAPAEDRSL-amide]” gave a half-life in series [1] of under 24 h. Moreover, the “spread in the anterior-posterior plane” value in the series with rat brain neurons (setting [3]) was about 3 mm. For the same substance, the “spread in the medial-lateral plane” value in the series with rat brain neurons (setting [3]) is given as at most 2 mm. In the series on rat brain neurons (30 μg injected into rat substantia nigra (all brain areas evaluated)), the “time to uptake by neurons after injection” value was at most 30 min. Also, the entries for the “immunohistochemical staining for DNSP-11” value in the series with rat brain neurons (3 hrs after injection into substantia nigra) and with rat brain neurons (48 hours post peptide administration) were “diminished” and “no evidence of DNSP-11”, respectively. In addition, in the series with rat brain neurons (stereotaxic injections of 30 μg), the “uptake into neurons of striatum, hippocampus and cortex” value was “Uptake was observed into neurons”. Besides, the “State III oxygen consumption / oxidative phosphorylation vs vehicle” value was “reached statistical significance; also recorded: increased” in series [2] (striatum) and “trend towards an increase; also recorded: increased” in series [2] (substantia nigra, n=2). Also, the caspase-3 activity entry in the series on MN9D dopaminergic cells was “significant reduction”.

As a reminder, the half-life is the time needed for the level to fall by half in the phase considered.
